The test system of one assay is microglia. Kind of assay: Confocal imaging of microglial uptake of Aβ1-42 oligomers. Format: cell-based, rat. Particulars: for Aβ1-42 oligomer internalization into microglia, rank order: primary cortical microglia.
Assay [1] deals with human Fcγ receptors (FcγRIa, FcγRIIa, FcγRIIb, FcγRIIIa). The assay is described as follows: FcγR binding ELISA, panel of human Fcγ receptors. Conditions: cross-linked antibody. As for the experimental part: FIG. 10 provides graphs and immunocytochemical images corresponding to the experiments described in Example 6.5. […] These findings are consistent with published data for human IgG4 antibodies (Gessner et al., 1998) and IgG1 antibodies carrying the D265A mutation (Shields et al., 2001).
The binding of test antibodies to a panel of human Fcγ receptors (FcγRs) was measured using enzyme-linked immunosorbent assay (ELISA). Human FcγRs (Genentech, Inc., CA) are fusion proteins containing the extracellular domain of the receptor γ-chain with a Gly/6xHis/glutathione S transferase (GST) polypeptide tag at the C terminus. A monoclonal antibody with human IgG1 framework was used as the positive control (IgG1 control) in this experiment. Plates were coated with a mouse monoclonal anti GST antibody (Genentech, Inc.) in a 0.05 M sodium carbonate buffer (pH 9.6) overnight at 4° C. After blocking with an assay buffer containing phosphate buffered saline (PBS), 0.5% BSA, and 0.05% Tween-20, the plates were incubated with FcγRs at room temperature for 1 h. Human FcγRs were immobilized to the plate via interaction with the anti-GST coating. […] Diluted samples were applied as monomeric forms for the high affinity receptor (FcγRIa), or multimeric forms for the low affinity receptors (FcγRIIa, FcγRIIb, and FcγRIIIa). The multimeric forms of test antibodies were generated by cross linking F(ab′)2 fragment of goat anti human κ-chain (MP Biomedicals, Solon, Ohio), with test monoclonal antibody at an approximate molar ratio of 3:1. The plates were incubated with FcγRs at room temperature for 2 h. […] The antibodies bound to the FcγRs were detected with horseradish peroxidase (HRP)-conjugated F(ab′)2 fragment of goat anti human F(ab′)2 (Jackson ImmunoResearch Laboratories; West Grove, Pa.). […] The reaction was terminated with 1 M H3PO4, and absorbance at 450 nm with reference at 650 nm was measured on a plate reader (Molecular Devices, Sunnyvale, Calif.). Binding curves were generated by plotting the mean absorbance values from duplicates of sample dilutions against the respective sample […].
For orientation: ELISA stands for enzyme-linked immunosorbent assay.

The subject of assay [2] is mixed cortical cells from P1 rats. The assay is described as follows: Aβ1-42 oligomer cytotoxicity assay, MTT readout. Format: cell-based, rat. Particulars: for reversal of Aβ1-42 oligomer-mediated toxicity: mixed primary cortical cultures, different IgG backbones. Here is the method:
FIG. 2 provides graphs and immunocytochemical images corresponding to the experiments described in Example 6.3. […] An MTT assay was used to determine cell viability as described in the Methods section. The means (±SEM) of five independent experiments are shown. *P<0.05, **P<0.01. […] Neurotoxicity following extended Aβ1-42 oligomer treatment was tested by morphological analyses (C).
A non-specific IgG monoclonal antibody was used as a control in all experiments.
Rat primary cortical cultures were prepared from Sprague-Dawley rats (Charles River Laboratories L'Arbresle, France) at post-natal day 1, as described by Meberg and Miller (Meberg and Miller, 2003). Cerebellum and meninges were removed, and cortices were cut into small pieces and dissociated with enzymatic disruption at 37° C. in dissociation buffer (papaine, CaCl2, EDTA, and HEPES; all from Invitrogen, Carlsbad, Calif.). DNase (Invitrogen) was added for 10 min. Following dissociation, dispersed cortical neurons were plated onto poly-L-lysine (0.01%; mol. wt 150,000-300,000; Sigma) coated 6-well, 24-well, or 96-well tissue culture plates. For immunocytochemistry, cells were grown on coated glass coverslips, into 24-well plates. Cells were maintained in Neurobasal media (Invitrogen) without phenol-red, with the addition of L-glutamine (2 mM; Sigma), B27 supplement (Invitrogen), and penicillin/streptomycin (Sigma) in a humidified incubator at 37° C. and 5% CO2. Following 1 h and 30 min in culture, the media was replaced with astrocyte-conditioned medium. After a further 4 days in culture, cell proliferation was blocked by treatment with cytosine arabinoside (Ara-C) at 2.5 μM (Invitrogen). Under these culture conditions, 20% of cells were identified as neurons by NeuN/DAPI staining (not shown). Experiments using mixed cortical cultures were generally performed at days-in-vitro (“DIV”) 6 unless stated otherwise. Enriched microglia prepared from cortex and hippocampus were harvested as described for cortical cultures above. Cortex and hippocampus were put in DMEM containing high glucose and homogenized by pipetting with a 10 mL pipette and then with a syringe. The homogenate was centrifuged for 3 min at 1,000×g, and then resuspended in pre-warmed DMEM containing high glucose containing 10% FCS and penicillin/streptomycin (microglia media). The cell suspension was next transferred to a T75 tissue-culture flask and kept in a humidified incubator at 37° C. and 5% CO2 for 1 week. The flask was shaken to separate microglia from adherent cells, and collected and washed in DMEM. The resulting cells were resuspended in 1 mL microglia media, counted, and plated at 5×10^4 cells/well. To verify microglial enrichment, cells were stained with the astroglial and microglial markers GFAP and Iba1, respectively. Greater than 60% of cells stained positive for Iba1, with no cells staining for both GFAP and Iba1. Pure microglia were prepared from post-natal day 3 CX3CR1-GFP mice (Jackson Laboratories). Cortex and hippocampus were dissected and triturated in DMEM containing high glucose using a 10 mL pipette, and then with an 18 gauge needle. The homogenate was centrifuged for 3 min at 1,000 g, and then resuspended in pre-warmed DMEM containing high glucose, 10% FBS and penicillin/streptomycin (microglia media). The cell suspension was next transferred to a T75 tissue-culture flask and kept in a humidified incubator at 37° C. and 5% CO2 for 7-10 d. Microglia were isolated by shaking, collected and washed in DMEM. The resulting cells were resuspended in 1 mL microglia media, counted, and plated on tissue culture treated glass chamber slides at 5×10^4 cells/well for use in experiments.
The cytotoxicity of Aβ1-42 oligomers was tested on mixed cortical cultures at DIV 5. All antibodies, at a final concentration of 100 μg/mL, were co-incubated with Aβ1-42 oligomers for 30 min in serum-free cell culture medium at 37° C. before treatment of cells. […]

“Also recorded” adds a separate entry of the source.

Procedure for microglia: Aβ1-42 oligomers are shown in red, and blue is DAPI staining of DNA to show the microglia itself (A). An apical-to-distal slice was obtained from a three-dimensional image rendered from Z-stacks. Confocal imaging was performed on mixed cortical cells labeled for Aβ (red) and stained with DAPI (blue) as described in the Example Section under Materials and Methods. Microglia were identified and scanned for the maximum fluorescence intensity through a series of confocal stacks representing intracellular locations (B), and the total area of fluorescent signal above a minimum threshold was quantified (C). Each mark on the graph represents the total area of Aβ stained within a single cell. A minimum of 20 cells were analyzed for each treatment condition. Data were compared using one-way ANOVA followed by Tukey post-hoc multiple comparison. Means (±SEM) are shown. […] Red is Iba1 staining, green is HyLite Fluor-488-labeled Aβ1 42, and blue is DAPI staining. […] Statistical analysis was done using one-way ANOVA followed by Tukey post-hoc multiple comparison.
The ability of these different monoclonal antibody backbones to internalize Aβ1-42 oligomers into microglia was then compared using confocal imaging on Aβ1-42 oligomer treated primary cortical microglia. […] To verify that microglia are indeed the cells taking up Aβ1-42 complexed to monoclonal antibodies, the study was repeated using HiLyte Fluor-488 tagged Aβ1-42 and co-stained for the microglial marker Iba1.
Cells were grown on a glass coverslips. Following treatment, cells were quickly washed with PBS and then fixed with 4% paraformaldehyde for 20 min. After thorough washes, cells were immersed in 100% methanol for 10 min at −20° C. They were then washed again and incubated in a blocking solution, PBS containing 10% normal goat serum for 1 h at room temperature. After an overnight incubation with the primary antibody, cells were washed and incubated for 2 h with the secondary antibody, then washed and mounted on glass slides using ProLong Gold antifade reagent (Invitrogen). Epifluorescence and confocal images were acquired on a LSM 700 inverted microscope from Zeiss, using a 63× lens. Fluorescence intensity was measured in cell bodies delineated by saturated epifluorescence pictures. Z-stacks were rendered into a three-dimensional image using ImageJ 1.42 (National Institutes of Health, freeware) from which an apical to distal slice containing the labeled proteins was obtained. Cells treated with HyLite Fluor-488-tagged Aβ1-42 were treated in the same way except no primary or secondary antibodies were used to label for Aβ1-42.

Take “MABT: humanized anti-Aβ monoclonal antibody of IgG4 isotype, affinity matured and humanized form of mouse mMABT”: the “uptake of Aβ1-42 oligomers into microglia” value in the assay with microglia (mixed neuronal cultures, apparent from 30 minutes) is “mediated rapid uptake of Aβ1-42 oligomers into cellular profiles likely to be microglia”. Further, the “Aβ1-42 oligomer internalization into microglia, rank order” value in the assay with microglia was “MABT-IgG1>MABT>MABT-IgG1-D265A”. The “binding to FcγRs” value in assay [1] is reported as “substantially reduced binding to all the FcγRs”. Also, the “antibody-mediated increase in MTT signal under p38MAPK inhibition” value in assay [2] (10 μM Aβ1-42 oligomers, 100 μg/ml antibody, 1 μM SB239063, 24 h) was “reduced to that of MABT-IgG1-D265A”. The “rescue from Aβ1-42 oligomer toxicity (MTT)” value in assay [2] (Aβ1-42 oligomer up to 5 μM, 24 h, MABT to oligomer molar ratio 1:7.5) is on record as “complete rescue from toxicity”. The “reversal of Aβ1-42 oligomer-mediated toxicity” value in assay [2] is “full reversal of Aβ1-42 oligomer-mediated toxicity”.

For “MABT-IgG1: same antigen binding sequences as MABT on human IgG1 wild-type backbone with full FcγR-binding capacity”, in the assay on microglia (Aβ1-42 in combination with antibody), the “microglial morphology and Iba1 staining” value is “more condensed nuclei and brighter Iba1 staining”. Further, in the assay with microglia, the “Aβ1-42 oligomer internalization into microglia, rank order” value was “MABT-IgG1>MABT>MABT-IgG1-D265A”. Moreover, the “binding to FcγRs” value in assay [1] is on record as “bound to all FcRγ receptors with activities similar to the positive non-Aβ-binding IgG1 control”. Further, the “reversal of Aβ1-42 oligomer-mediated toxicity” value in assay [2] is reported as “full reversal of Aβ1-42 oligomer-mediated toxicity; also recorded: trended towards a smaller protective effect when compared to MABT”.

The record behind these values is patent US9221900B2, “Methods for identifying safe and functional humanized antibodies” (AC IMMUNE S.A., priority 2010, dated 2015).
